# Inconclusive results and toxic doses are left out. Non-standard residues stand in square brackets, D forms with d. Residues, ends and D or L forms follow the SMILES beside them. ξ: configuration not given here. ξF = NC(Cc1ccccc1)C(=O)O
# Tested on: BDF1 mice, P388 leukemia ip, median survival T/C
# Experiment: NCI In Vivo Anticancer Drug Screen. Data for tumor model P388 Leukemia (intraperitoneal) in B6D2F1 (BDF1) mice
# Settings: endpoint: median survival time, higher = longer survival
# In short: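 Antitumour effect was judged in vivo: survival in drug-treated mice, normalised to that of vehicle-dosed controls, gives the reported T/C.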
# [1] = dose: 100.0 mg/kg/injection, schedule: Q04DX003 (ip), vehicle: Klucel (hydroxypropylcellulose) (HPC)
# [2] = dose: 200.0 mg/kg/injection, schedule: Q04DX003 (ip), vehicle: Klucel (hydroxypropylcellulose) (HPC)
# [3] = dose: 100.0 mg/kg/injection, schedule: Q04DX003 (ip), vehicle: saline with Tween-80
# [4] = dose: 400.0 mg/kg/injection, schedule: Q04DX003 (ip), vehicle: saline with Tween-80
# [5] = dose: 200.0 mg/kg/injection, schedule: Q04DX003 (ip), vehicle: saline with Tween-80
smiles,measurement,setting,value
O=C1c2cc([N+](=O)[O-])ccc2-c2cc(Cl)c(Cl)cc21,T/C,"dose: 50.0 mg/kg/injection, schedule: Q01DX001 (ip), vehicle: saline sonified",86 % of control
same,T/C,"dose: 100.0 mg/kg/injection, schedule: Q01DX001 (ip), vehicle: saline sonified",100 % of control
same,T/C,"dose: 200.0 mg/kg/injection, schedule: Q01DX001 (ip), vehicle: saline sonified",90 % of control
CCCCCC(C[N+](C)(C)C)C(=O)/C=C/c1ccc(Cl)cc1 (stereo not drawn),T/C,"dose: 6.25 mg/kg/injection, schedule: Q01DX001 (ip), vehicle: Klucel (hydroxypropylcellulose) (HPC)",113 % of control
same,T/C,"dose: 12.5 mg/kg/injection, schedule: Q01DX001 (ip), vehicle: Klucel (hydroxypropylcellulose) (HPC)",100 % of control
same,T/C,"dose: 25.0 mg/kg/injection, schedule: Q01DX001 (ip), vehicle: Klucel (hydroxypropylcellulose) (HPC)",101 % of control
same,T/C,"dose: 50.0 mg/kg/injection, schedule: Q01DX001 (ip), vehicle: Klucel (hydroxypropylcellulose) (HPC)",88 % of control
CCCCCCC(=O)/C=C/c1cc(OC)ccc1OC,T/C,"dose: 12.5 mg/kg/injection, schedule: Q01DX009 (ip), vehicle: saline with Tween-80",100 % of control
same,T/C,"dose: 25.0 mg/kg/injection, schedule: Q01DX009 (ip), vehicle: saline with Tween-80",95 % of control
same,T/C,"dose: 50.0 mg/kg/injection, schedule: Q01DX009 (ip), vehicle: saline with Tween-80",104 % of control
same,T/C,"dose: 100.0 mg/kg/injection, schedule: Q01DX009 (ip), vehicle: saline with Tween-80",104 % of control
CN(C)c1ccc(/C=C/C2CC[N-]C3C(O)CCCC23)cc1.CN(C)c1ccc(/C=C/C2CC[N-]C3C(O)CCCC23)cc1.CN(C)c1ccc(/C=C/C2CC[N-]C3C(O)CCCC23)cc1.[Fe+3] (stereo not drawn),T/C,"dose: 100.0 mg/kg/injection, schedule: Q04DX002 (ip), vehicle: saline with Tween-80",110 % of control
same,T/C,"dose: 200.0 mg/kg/injection, schedule: Q04DX002 (ip), vehicle: saline with Tween-80",122 % of control
Cc1ccc(N2C(=O)CC(Sc3ccccc3N)C2=O)cc1 (stereo not drawn),T/C,"dose: 50.0 mg/kg/injection, schedule: Q01DX009 (ip), vehicle: Klucel (hydroxypropylcellulose) (HPC)",105 % of control
same,T/C,"dose: 100.0 mg/kg/injection, schedule: Q01DX001 (ip), vehicle: saline",100 % of control
same,T/C,"dose: 100.0 mg/kg/injection, schedule: Q01DX009 (ip), vehicle: Klucel (hydroxypropylcellulose) (HPC)",105 % of control
same,T/C,[1],95 % of control
same,T/C,"dose: 200.0 mg/kg/injection, schedule: Q01DX001 (ip), vehicle: saline",90 % of control
same,T/C,"dose: 200.0 mg/kg/injection, schedule: Q01DX009 (ip), vehicle: Klucel (hydroxypropylcellulose) (HPC)",105 % of control
same,T/C,[2],87 % of control
same,T/C,"dose: 400.0 mg/kg/injection, schedule: Q01DX001 (ip), vehicle: saline",90 % of control
N=Nc1c2ccccc2c2nc3c(N)[nH]nc(N)c3nc12,T/C,[3],97 % of control
same,T/C,[4],95 % of control
O=c1[nH]cnc2c1nc1n2CCC1,T/C,"dose: 50.0 mg/kg/injection, schedule: Q04DX003 (ip), vehicle: saline with Tween-80",90 % of control
same,T/C,[3],90 % of control
same,T/C,[5],113 % of control
NC(Cc1ccccc1)C(=O)NCC(=O)NCC(=O)O (stereo not drawn) (H-[ξF]-Gly-Gly-OH),T/C,[3],95 % of control
same,T/C,[5],104 % of control
same,T/C,[4],109 % of control
Cc1cccc(=O)n1CCC#N,T/C,"dose: 100.0 mg/kg/injection, schedule: Q04DX003 (ip), vehicle: saline",96 % of control
same,T/C,"dose: 200.0 mg/kg/injection, schedule: Q04DX003 (ip), vehicle: saline",96 % of control
same,T/C,"dose: 400.0 mg/kg/injection, schedule: Q04DX003 (ip), vehicle: saline",100 % of control
CCOC(=O)C(C(=O)OCC)=C(C)C,T/C,[1],100 % of control
same,T/C,[2],88 % of control
same,T/C,"dose: 400.0 mg/kg/injection, schedule: Q01DX009 (ip), vehicle: saline with Tween-80",150 % of control
same,T/C,"dose: 400.0 mg/kg/injection, schedule: Q04DX003 (ip), vehicle: Klucel (hydroxypropylcellulose) (HPC)",103 % of control
Cn1cnc(C(N)=S)c1N,T/C,"dose: 75.0 mg/kg/injection, schedule: Q04DX003 (ip), vehicle: saline",112 % of control
same,T/C,"dose: 100.0 mg/kg/injection, schedule: Q01DX001 (ip), vehicle: Klucel (hydroxypropylcellulose) (HPC)",100 % of control
same,T/C,"dose: 150.0 mg/kg/injection, schedule: Q04DX003 (ip), vehicle: saline",100 % of control
same,T/C,"dose: 200.0 mg/kg/injection, schedule: Q01DX001 (ip), vehicle: Klucel (hydroxypropylcellulose) (HPC)",95 % of control
same,T/C,"dose: 300.0 mg/kg/injection, schedule: Q04DX003 (ip), vehicle: saline",112 % of control
same,T/C,"dose: 400.0 mg/kg/injection, schedule: Q01DX001 (ip), vehicle: Klucel (hydroxypropylcellulose) (HPC)",100 % of control
C#CC1(O)CCC2C3CCc4cc(OC)ccc4C3CCC21C (stereo not drawn),T/C,"dose: 40.0 mg/kg/injection, schedule: Q01DX009 (sc), vehicle: saline with Tween-80",100 % of control
same,T/C,"dose: 80.0 mg/kg/injection, schedule: Q01DX009 (sc), vehicle: saline with Tween-80",100 % of control
same,T/C,"dose: 100.0 mg/kg/injection, schedule: Q04DX003 (sc), vehicle: saline with Tween-80",88 % of control
same,T/C,"dose: 160.0 mg/kg/injection, schedule: Q01DX009 (sc), vehicle: saline with Tween-80",100 % of control
same,T/C,"dose: 200.0 mg/kg/injection, schedule: Q04DX003 (sc), vehicle: saline with Tween-80",94 % of control
same,T/C,"dose: 400.0 mg/kg/injection, schedule: Q04DX003 (sc), vehicle: saline with Tween-80",88 % of control

# Reference: PubChem BioAssay AID328 (DTP/NCI, 2004)
